This assay deals with MRSA COL (MB5393). Description: TarO Inhibitor/β-Lactam Synergy Assay. Format: cell-based, Staphylococcus aureus. The conditions noted are these: 20 hours; for IC95: TarO inhibitor alone, OD600, 95% growth inhibition, read-out: MITC95 TarO inhibitor alone, Bacteria: SA_MB5393; for MITC95 TarO inhibitor + 4 μg/mL IPM; Bacteria: SA_MB5393: in combination with 4 μg/mL imipenem; for MITC95 TarO inhibitor + 4 μg/mL IPM; Bacteria: SA_MB5393 / MITC95 TarO inhibitor + 8 μg/mL DCX; Bacteria: SA_MB5393: OD600; for MITC95 TarO inhibitor + 8 μg/mL DCX; Bacteria: SA_MB5393: in combination with 8 μg/mL dicloxacillin. On the procedure: The TarO inhibitor/β-lactam synergy assay was performed to measure the re-sensitization of methicillin-resistant Staphylococci bacteria (MB5393: MRSA COL) to β-lactam antibiotics by TarO inhibitors. MRSA COL is a hospital-acquired penicillinase-negative clinically isolated strain commonly used in Staphylococcus aureus studies and is fully resistant to the antimicrobial bioactivity of β-lactam antibiotics, including but not limited to imipenem and dicloxacillin. […] MRSA COL is fully refractory to β-lactam antibiotic effect at the current clinical breakpoint concentrations and as such MRSA COL is fully viable at these concentrations.
The β-lactam antibiotic concentration was fixed at the clinical breakpoint (imipenem 4 μg/ml or dicloxacillin 8 μg/ml) and the TarO inhibitors were titrated by 2 fold starting from the highest concentration of 200 μM with final DMSO concentration of 2% in the assay. 5×10^5 colony forming unit of MRSA COL in cation-adjusted Mueller Hinton broth (CAMHB) was then mixed and the assay plate was incubated for 20 hours at 37° C. without shaking. After 20 hours, the optical density at 600 nm (OD600) was read for all wells to determine relative growth of MRSA COL.

Where two headings read alike, the source gives them in different places.

`CCN(C(=O)CCn1c2ccc(CO)cc2nc1[C@H]1CC[C@H](CC)CC1)C1CCCCC1` [Example 1, N-cyclohexyl-N-ethyl-3-(2-(trans-4-ethylcyclohexyl)-5-(hydroxymethyl)-1H-benzo[d]imidazol-1-yl)propanamide]: the “MITC95 TarO inhibitor + 4 μg/mL IPM; Bacteria: SA_MB5393” value (from here on “MITC95 TarO inhibitor + 4 μg/mL IPM”) is 1.82 µM and the “MITC95 TarO inhibitor + 8 μg/mL DCX; Bacteria: SA_MB5393” value (from here on “MITC95 TarO inhibitor + 8 μg/mL DCX”) is 6.25 µM. For the same compound, the IC95 (Staphylococcus aureus) is above 200 µM.

Take `CCN(C(=O)CCn1c2cccnc2nc1[C@H]1CC[C@H](CC)CC1)C1CCCCC1` [Example 2, N-cyclohexyl-N-ethyl-3-[2-(trans-4-ethylcyclohexyl)-1H-imidazo[4,5-b]pyridin-1-yl]propanamide]: the “MITC95 TarO inhibitor + 4 μg/mL IPM” value amounted to 1.88 µM and the “MITC95 TarO inhibitor + 8 μg/mL DCX” value turned out to be 18.75 µM. For the same compound, the IC95 (Staphylococcus aureus) is above 200 µM.

With `CCN(C(=O)CCn1c2cc(C#N)ccc2nc1[C@H]1CC[C@H](CC)CC1)C1CCCCC1` [Example 3, 3-[6-cyano-2-(trans-4-ethylcyclohexyl)-1H-benzimidazol-1-yl]-N-cyclohexyl-N-ethylpropanamide], the “MITC95 TarO inhibitor + 4 μg/mL IPM” value was 4.17 µM and the “MITC95 TarO inhibitor + 8 μg/mL DCX” value came out at 20.83 µM. Also, under “Staphylococcus aureus”, the IC95 is above 200 µM.

As for `CCN(C(=O)CCn1c2cnccc2nc1[C@H]1CC[C@H](CC)CC1)C1CCCCC1` [Example 4, N-cyclohexyl-N-ethyl-3-[2-(trans-4-ethylcyclohexyl)-3H-imidazo[4,5-c]pyridin-3-yl]propanamide], the “MITC95 TarO inhibitor + 4 μg/mL IPM” value came to 4.17 µM and the “MITC95 TarO inhibitor + 8 μg/mL DCX” value is 41.67 µM. Besides, the IC95 (Staphylococcus aureus) was above 200 µM.

For the compound `CCN(C(=O)CCn1c2ccc(Br)cc2nc1[C@H]1CC[C@H](CC)CC1)C1CCCCC1` [Example 5, 3-[5-bromo-2-(trans-4-ethylcyclohexyl)-1H-benzimidazol-1-yl]-N-cvclohexyl-N-ethylpropanamide], the “MITC95 TarO inhibitor + 4 μg/mL IPM” value came to 0.01 µM and the “MITC95 TarO inhibitor + 8 μg/mL DCX” value is 0.02 µM. Further, the IC95 (Staphylococcus aureus) was above 200 µM.

In the case of `CCN(C(=O)CCn1c2cc(F)ccc2nc1[C@H]1CC[C@H](CC)CC1)C1CCCCC1` [Example 6, N-cyclohexyl-N-ethyl-3-(2-(trans-4-ethvlcyclohexyl)-6-fluoro-1H-benzo[d]imidazol-1-yl)propanamide], the “MITC95 TarO inhibitor + 4 μg/mL IPM” value stood at 0.13 µM and the “MITC95 TarO inhibitor + 8 μg/mL DCX” value stood at 0.59 µM. Besides, the IC95 (Staphylococcus aureus) is above 200 µM.

Consider `CCN(C(=O)CCn1c2ccc(C(F)(F)F)cc2nc1[C@H]1CC[C@H](CC)CC1)C1CCCCC1` [Example 7, N-cyclohexyl-N-ethyl-3-[2-(trans-4-ethylcyclohexyl)-5-(trifluoromethyl)-1H-benzimidazol-1-yl]propanamide], for which the “MITC95 TarO inhibitor + 4 μg/mL IPM” value amounted to 0.20 µM and the “MITC95 TarO inhibitor + 8 μg/mL DCX” value came out at 0.20 µM. In addition, for the setting “Staphylococcus aureus”, the IC95 was above 200 µM.

As for `CCN(C(=O)CCn1c2cc(Br)ccc2nc1[C@H]1CC[C@H](CC)CC1)C1CCCCC1` [Example 8, 3-[6-bromo-2-(trans-4-ethylcyclohexyl)-1H-benzimidazol-1-yl]-N-cyclohexyl-N-ethylpropanamide], the “MITC95 TarO inhibitor + 4 μg/mL IPM” value is 0.06 µM and the “MITC95 TarO inhibitor + 8 μg/mL DCX” value was found to be 0.22 µM. The IC95 (Staphylococcus aureus) was above 200 µM.

Turning to `CCN(C(=O)CCn1c2cccc(F)c2nc1[C@H]1CC[C@H](CC)CC1)C1CCCCC1` [Example 9, N-cyclohexyl-N-ethyl-3-[2-(trans-4-ethylcyclohexyl)-4-fluoro-1H-benzimidazol-1-yl]propanamide], the “MITC95 TarO inhibitor + 4 μg/mL IPM” value was found to be 0.13 µM and the “MITC95 TarO inhibitor + 8 μg/mL DCX” value was found to be 0.79 µM. Moreover, under “Staphylococcus aureus”, the IC95 was above 200 µM.

In the case of `CCN(C(=O)CCn1c2ccc(F)cc2nc1[C@H]1CC[C@H](CC)CC1)C1CCCCC1` [Example 10, N-cyclohexyl-N-ethyl-3-[2-(trans-4-ethylcyclohexyl)-5-fluoro-1H-benzimidazol-1-yl]propanamide], the “MITC95 TarO inhibitor + 4 μg/mL IPM” value is 0.004 µM and the “MITC95 TarO inhibitor + 8 μg/mL DCX” value is 0.03 µM. The IC95 (Staphylococcus aureus) was above 200 µM.

In the case of `CCN(C(=O)CCn1c2c(F)cccc2nc1[C@H]1CC[C@H](CC)CC1)C1CCCCC1` [Example 11, N-cyclohexyl-N-ethyl-3-[2-(trans-4-ethylcyclohexyl)-7-fluoro-1H-benzimidazol-1-yl]propanamide], the “MITC95 TarO inhibitor + 4 μg/mL IPM” value was 0.40 µM and the “MITC95 TarO inhibitor + 8 μg/mL DCX” value turned out to be 1.04 µM. For the same compound, the IC95 (Staphylococcus aureus) was above 200 µM.

Take `CCN(C(=O)CCn1c(C2CCCN(C(=O)OC(C)(C)C)C2)nc2cc(F)ccc21)C1CCCCC1` (stereo not drawn) [Example 12, tert-butyl 3-(1-{3-[cyclohexyl(ethyl)amino]-3-oxopropyl}-5-fluoro-1H-benzimidazol-2-yl)piperidine-1-carboxylate]: the “MITC95 TarO inhibitor + 4 μg/mL IPM” value amounted to 0.50 µM and the “MITC95 TarO inhibitor + 8 μg/mL DCX” value was found to be 1.09 µM. Moreover, under “Staphylococcus aureus”, the IC95 was above 200 µM.

With `CCOC(=O)N1CCCC(c2nc3cc(F)ccc3n2CCC(=O)N(CC)C2CCCCC2)C1` (stereo not drawn) [Example 13, Ethyl 3-(1-{3-[cyclohexyl(ethyl)amino]-3-oxopropyl}-5-fluoro-1H-benzimidazol-2-yl)piperidine-1-carboxylate], the “MITC95 TarO inhibitor + 4 μg/mL IPM” value is 0.35 µM and the “MITC95 TarO inhibitor + 8 μg/mL DCX” value came out at 2.19 µM. The IC95 (Staphylococcus aureus) is above 200 µM.

With `CCN(C(=O)CCn1c2cc(CO)ccc2nc1[C@H]1CC[C@H](CC)CC1)C1CCCCC1` [Example 14, N-cyclohexyl-N-ethyl-3-[2-(trans-4-ethylcyclohexyl)-6-(hydroxymethyl)-1H-benzimidazol-1-yl]propanamide], the “MITC95 TarO inhibitor + 4 μg/mL IPM” value worked out at 0.52 µM and the “MITC95 TarO inhibitor + 8 μg/mL DCX” value is 3.13 µM. In addition, the IC95 (Staphylococcus aureus) was above 200 µM.

Regarding `CCN(C(=O)CCn1c(C2CCCN(C(=O)OC(C)(C)C)C2)nc2cc(F)ccc21)C1CCCCC1` (stereo not drawn) [Example 15, tert-butyl 3-(1-{3-[cyclohexyl(ethyl)amino]-3-oxopropyl}-5-fluoro-1H-benzimidazol-2-yl)piperidine-1-carboxylate], the IC95 is given as above 200 µM, the “MITC95 TarO inhibitor + 4 μg/mL IPM” value came to 0.52 µM and the “MITC95 TarO inhibitor + 8 μg/mL DCX” value was determined as 4.17 µM.

Turning to `CCN(C(=O)CCn1c2ccc(OC)cc2nc1[C@H]1CC[C@H](CC)CC1)C1CCCCC1` [Example 16, N-cyclohexyl-N-ethyl-3-[2-(trans-4-ethylcyclohexyl)-5-methoxy-1H-benzimidazol-1-yl]propanamide], the “MITC95 TarO inhibitor + 4 μg/mL IPM” value is 1.04 µM and the “MITC95 TarO inhibitor + 8 μg/mL DCX” value stood at 14.58 µM. In addition, the IC95 (Staphylococcus aureus) is above 200 µM.

For the compound `CCN(C(=O)CCn1c2ccncc2nc1[C@H]1CC[C@H](CC)CC1)C1CCCCC1` [Example 17, N-cyclohexyl-N-ethyl-3-[2-(trans-4-ethylcyclohexyl)-1H-imidazo[4,5-c]pyridin-1-yl]propanamide], the “MITC95 TarO inhibitor + 4 μg/mL IPM” value was found to be 0.98 µM and the “MITC95 TarO inhibitor + 8 μg/mL DCX” value was determined as 6.25 µM. Also, the IC95 (Staphylococcus aureus) was above 200 µM.

Turning to `CCOC(=O)N1CCCC(c2nc3cc(F)ccc3n2CCC(=O)N(CC)C2CCCCC2)C1` (stereo not drawn) [Example 18, Ethyl 3-(1-{3-[cyclohexyl(ethyl)amino]-3-oxopropyl}-5-fluoro-1H-benzimidazol-2-yl)piperidine-1-carboxylate], the IC95 is above 200 µM, the “MITC95 TarO inhibitor + 4 μg/mL IPM” value was determined as 1.09 µM and the “MITC95 TarO inhibitor + 8 μg/mL DCX” value turned out to be 23.75 µM.

On to `CCN(C(=O)CCn1c2ncccc2nc1[C@H]1CC[C@H](CC)CC1)C1CCCCC1` [Example 19, N-cyclohexyl-N-ethyl-3-[2-(trans-4-ethylcyclohexyl)-3H-imidazo[4,5-b]pyridin-3-yl]propanamide], for which the “MITC95 TarO inhibitor + 4 μg/mL IPM” value is 1.95 µM and the “MITC95 TarO inhibitor + 8 μg/mL DCX” value was 28.13 µM. For the same compound, the IC95 (Staphylococcus aureus) was above 200 µM.

On to `CCN(C(=O)CCn1c2cccc(C(F)F)c2nc1[C@H]1CC[C@H](C)CC1)C1CCCCC1` [Example 20, N-cyclohexyl-3-[4-(difluoromethyl)-2-(trans-4-methylcyclohexyl)-1H-benzimidazol-1-yl]-N-ethylpropanamide], for which the “MITC95 TarO inhibitor + 4 μg/mL IPM” value worked out at 1.56 µM and the “MITC95 TarO inhibitor + 8 μg/mL DCX” value stood at 12.50 µM. Also, the IC95 (Staphylococcus aureus) came out at 100 µM.

Take `CCN(C(=O)CCn1c(C2CCN(C(=O)OC(C)(C)C)C2)nc2cc(F)ccc21)C1CCCCC1` (stereo not drawn) [Example 21, tert-butyl 3-(1-{3-[cyclohexyl(ethyl)amino]-3-oxopropyl}-5-fluoro-1H-benzimidazol-2-yl)pyrrolidine-1-carboxylate]: the “MITC95 TarO inhibitor + 4 μg/mL IPM” value is 0.78 µM and the “MITC95 TarO inhibitor + 8 μg/mL DCX” value is 13.54 µM. For the same compound, the IC95 (Staphylococcus aureus) is above 200 µM.
